Tested on: Caco-2 bidirectional permeability, LC-MS/MS efflux ratio
Assay: Enhancers of SMN2 Splice Variant Expression: Efflux Ratio Profiling
Settings: stronger effect = lower value
Source text: Spinal muscular atrophy (SMA) is caused by insufficient levels of the survival motor neuron protein SMN. The SMN locus on chromosome 5q13 contains two inverted copies of SMN called SMN1 and SMN2 which are 99% identical at the amino acid level. SMN1 is a fully functional protein and SMN2 skips exon 7 90% of the time. Skipping of exon 7 produces non-functional protein product. 10% of the SMN2 protein includes exon 7 and is fully functional. In the SMA disease state, mutations in the SMN1 locus are the cause of the disease state. Because only 10% of SMN2 is of the fully functional form, it is not sufficient to overcome the deficiency produced by the loss of the SMN1 product. A therapy that either increase the amount of SMN2 product made or to increase the inclusion of exon 7 has been proposed for the treatment of SMA. After screening and medicinal chemistry efforts a probe was identified and is further characterized in this in vitro ADME assay. This bioassays provides profiling data on Caco-2 cell permeability of leads compounds developed for the HPGD project. […]
Prepare 1M HEPES: add 23.83g HEPES to 100ml of 0.85% NaCl Prepare HBSS+ buffer: add 12.8ml of 1M HEPES in 0.85% NaCl to 500ml HBSS buffer. […] The T0, LY and T90, LY plates are read by FlexStation 3 at excitation of 485 nm and emission of 535 nm to determine LY permeability. […]

**Q.** For `O=C(O)C1CCN(c2nc(-c3ccc(Br)cc3)cs2)CC1`, which efflux ratio is on record?
**A.** 0.4
